Laboratory results: patent publication US8158389B2, “Products and methods for in vivo secretion of monatin” (priority 2005, dated 2012)
Several values for one entry are separate records, joined by “and”; a condition that tells them apart may be missing. Identical values can stand only once. Like-named read-outs stand apart in the source and are kept apart here. Marks after values point to notes of the source that are not given here.

Assays:
[1] = system: C. glutamicum ATCC 13032 transformed with aspCProA pEKEX-2; test: Monatin efflux with biotin and ampicillin treatments; format: cell-based, Corynebacterium glutamicum
Description: C. glutamicum ATCC 13032 strains transformed with aspCProA pEKEX-2 were grown overnight in LB medium supplemented with 50 μg/mL kanamycin incubated at 30° C. and shaking at 250 rpm. […] Microbiol 151:342-347, (1989). […] The pH was adjusted to 7.0.
Additions of 1.0 g L-tryptophan and 5 g/L sodium pyruvate and ampicillin (either 0 or 10 μg/ml) were made 3 hours following induction.

[2] = system: C. glutamicum 13032::aspC/proA/pEKEX2-2; test: Monatin excretion using ethambutol; format: cell-based, Corynebacterium glutamicum
Description: (§1) Microbiol 151:342-347, (1989). […] The pH was adjusted to 7.0.
Conditions for the treatments included 30° C. throughout the experiment and 250 rpm agitation. Ethambutol (10 mg/L) was added either prior to inoculation of shake flasks or at the first feeding time when tryptophan and pyruvate were added. […] Additions of 1 g L-tryptophan, 10 g/L sodium pyruvate, 0.04 mM pyridoxal-5′-phosphate (“PLP”), were made 3 hours following induction.

[3] = system: E. coli BL21 DE3 aspC/proA on pET30; test: Monatin excretion with glucose or malate as carbon source; format: cell-based, Escherichia coli
Description: For inoculum, E. coli BL21 DE3 aspC/proA on pET30 was grown overnight in LB medium with 50 μg/mL kanamycin at 37° C. and 250 rpm. For the experimental treatments, Trp-1 medium, as described in Example 6 (Zeman, et al. Folia Microbiol. 35:200-204, (1990)), and 50 μg/mL kanamycin was used. Malate and glucose were 4 g/L initially for their respective treatments. For treatment flasks, 2.2 v/v % of inoculum was added to 50 mL medium volume in 250 mL baffled shake flasks. For glucose treatments, induction of the monatin operon was initiated at 0.8 OD600 nm. For malate treatments, induction was at 0.25 OD. At induction, 0.5 mM IPTG, 0.5 mM pyridoxine hydrochloride, and 0.2 mL of Balch's vitamins (Balch, W. E., et al., “Methanogens: reevaluation of a unique biological group,” Microbiol. Rev. 43:260-296 (1979)) were added. Temperature was reduced to 30° C. at induction.

[4] = system: E. coli MG1655::aspCproApProNde (control); test: AcrAB k.o. validation: growth (OD 600 nm) with novobiocin / sodium decanoate, control strain; format: cell-based, Escherichia coli
Description: (§2) Single chloramphenicol-resistant colonies were purified by restreaking on appropriate selective media and single colonies were tested by PCR as previously described for the BW25113 knockout strains, to verify the presence of the emrB and acrAB knockouts. The effects of the emrB and acrAB knockouts on the EmrAB and AcrAB transporter systems respectively were determined by assessing the phenotype of the transport mutants using appropriate antibiotics and comparison to wild type control microorganisms as shown in Table 3.1 and Table 3.2 below.

[5] = system: E. coli MG1655 ΔAcrAB 6-16::aspCproAproNde; test: AcrAB k.o. validation: growth (OD 600 nm) with novobiocin / sodium decanoate, knockout strain; format: cell-based, Escherichia coli
Description: as §2

[6] = system: C. glutamicum 13032 transformed with aspCProA pEKEX-2; test: Monatin efflux with increased temperature and sodium pyruvate; format: cell-based, Corynebacterium glutamicum
Description: as §1
Conditions for treatments included 30° or 35° C. throughout the experiment and 250 rpm agitation. At an OD600 nm, between 0.45-0.51, induction of the monatin operon genes was initiated. […] Additions of 1.0 g L-tryptophan, 10 or 15 g/L sodium pyruvate, 0.04 mM pyridoxal-5′-phosphate (“PLP”), were made 3 hours and also at 24 hours following induction. A total of 20 or 30 g/L sodium pyruvate was added to each flask by adding 10 or 15 g/l at each of the two feeding times.

[7] = system: C. glutamicum ATCC 13032 transformed with aspCProApEKEX-2
Description: C. glutamicum ATCC 13032 strains transformed with aspCProApEKEX-2 were grown overnight in LB medium supplemented with 25 μg/mL kanamycin incubated at 37° C. and shaking at 250 rpm. For the experimental treatment flasks, 100 mL of Krämer's A medium was used in each shake flask. Hoischen, C. and Krämer, R., “Evidence for an efflux carrier system involved in the secretion of glutamate by Corynebacterium glutamicum,” Arch. Microbiol 151:342-347, (1989). Krämer's A medium contained (per liter): 5 g (NH4)2SO4, 5 g urea, 2 g KH2PO4, 1.53 g K2HPO4, 0.249 g MgSO4.7H2O, 50 g glucose, 0.01 g FeSO4.7H2O, 0.01 g MnSO4.H2O, 0.01 g CaCl2.2H2O, 0.03 mg ZnSO4.7H2O, 0.1 mg H3BO3, 0.07 mg […], 0.01 mg NiCl2.2H2O, 0.03 mg CuCl2.2H2O, 0.1 mg as Mo^+6 from (NH4)6Mo7O24-4H2O and 1 μg biotin. The pH was adjusted to 7.0.
For treatments, 4.2 v/v % of inoculum was added to 100 mL medium volume in 500 mL baffled shake flasks. Conditions for the treatments included 37° C. throughout the experiment and 250 rpm agitation. Sodium salicylate (0, 1 mM or 2 mM) was added 1 hour following inoculation. At 0.45-0.6 OD600 nm induction of the monatin operon genes was initiated. IPTG at 0.5 mM was used for induction, and additions at the time of induction included 0.5 mM pyridoxine hydrochloride and 0.04 mM pyridoxal-5′-phosphate (“PLP”). Additions of 1 g L-tryptophan, 5 g/L sodium pyruvate and 10 μg/mL ampicillin were made 3 hours following induction. Samples for monatin and dry cell weight determination were taken at 23.5 and 48 hours.
Monatin analysis was conducted as described in Example 13.

E. coli BL21DE3 AP pET32 = test: Monatin excretion with Tween 20, E. coli BL21DE3 with or without Arabidopsis auxin transporter gene; format: cell-based, Escherichia coli; conditions: 0.2% Tween 20
Description: For inoculum preparation, the E. coli strains were grown overnight at 37° C. and 250 rpm in Luria-Bertani (“LB”) medium with 100 μg/mL ampicillin and 50 μg/mL kanamycin. For the experimental treatments, Trp-1+glucose medium, a minimal medium that has been used for increased production of tryptophan in E. coli cells (Zeman, et al. Folia Microbiol. 35:200-204, (1990)), was prepared as follows. To 800 mL nanopure water the following reagents were added: 2 g (NH4)2SO4 and 13.6 g KH2PO4. The pH was adjusted to 7.0, the volume was increased to 948 mL, and the medium was autoclaved. Following sterilization, 0.2 g MgSO4.7H2O, 0.01 g CaCl2.2H2O, and 0.5 mg FeSO4.7H2O were added to the medium in a 1.8 mL volume followed by addition of 0.2 mL of Neidhardt's micronutrient solution. Neidhardt F. C., et al., “Culture medium for Enterobacteria,” J. Bacteriol. 119:736-746, (1974). Neidhardt's medium includes (per liter): 0.18 g (NH4)6(MO7)24.4H2O, 1.24 g H3BO3, 0.36 g CoCl2.6H2O, 0.12 g CuSO4 (anhydrous), 0.8 g MnCl2.4H2O, and 0.14 g ZnSO4.7H2O. A 50% glucose solution was prepared separately and sterile-filtered. Forty mL of glucose solution and 10 mL of 1 M 3-Morpholinopropanesulfonic acid (“MOPS”) buffer were added to the base medium (950 mL) for a 1 L final volume.
Conditions for the treatments included 250 rpm agitation throughout and 37° C. up to induction, then, 30° C. following induction. At 0.54-0.62 OD600 nm, induction of the plasmid genes was initiated. At induction, 1.0 mM IPTG, 0.5% L-arabinose, 0.5 mM pyridoxine hydrochloride, and 0.2 mLs of Balch's vitamins were added. Additions of 10 g/L L-tryptophan, 10 g/L sodium pyruvate, 0.04 mM pyridoxal-5′-phosphate (“PLP”) and 0 or 0.2% Tween® 20 (polyoxyethylene 20-sorbitan monolaurate) were made 3 hours following induction.

[8] = Ampicillin 10 μg/mL, Biotin 1 μg/L
[9] = Ampicillin 10 μg/mL, Biotin 200 μg/L
[10] = Biotin 200 μg/L, Ampicillin 0 μg/mL
[11] = ethambutol 10 mg/L with 0.2% Tween 20 and 10 μg/ml ampicillin, n = 2
[12] = ethambutol 10 mg/L, another 10 g/L sodium pyruvate at 24 hours, n = 2
[13] = 40 or 80 ppm novobiocin, no sodium decanoate
[14] = novobiocin 40 ppm, sodium decanoate 0 mM
[15] = novobiocin 40 ppm, sodium decanoate 2.5 mM
[16] = novobiocin 80 ppm, sodium decanoate 0 mM
[17] = novobiocin 80 ppm, sodium decanoate 2.5 mM
[18] = Arabidopsis auxin transporter gene on pProNde del, n = 3
[19] = no auxin transporter gene on pProNde del, n = 3

## CC1(C)S[C@@H]2[C@H](NC(=O)[C@H](N)c3ccccc3)C(=O)N2[C@H]1C(=O)O [Ampicillin, ampicillin]
[1]; [8]
  Monatin/dry cell weight, 24 hours: 16.2 mg/g
  Monatin/dry cell weight, 48 hours: 13.5 mg/g
[1]; [9]
  Monatin/dry cell weight, 24 hours: 12.1 mg/g
  Monatin/dry cell weight, 48 hours: 9.3 mg/g

## O=C(O)CCCC[C@@H]1SC[C@@H]2NC(=O)N[C@@H]21 [Biotin, biotin]
[1]; Biotin 1 μg/L, Ampicillin 0 μg/mL
  Monatin/dry cell weight, 48 hours: 4.5 mg/g
[1]; Biotin 1 μg/L, Ampicillin 0 μg/mL, n = 1
  Monatin/dry cell weight, 24 hours: 1.9* mg/g
[1]; [10]
  Monatin/dry cell weight, 24 hours: 0.9 mg/g
  Monatin/dry cell weight, 48 hours: 1.7 mg/g

## CC[C@@H](CO)NCCN[C@@H](CC)CO [ethambutol]
[2]; Tween/ampicillin treatment with 10 mg/L ethambutol vs same treatment without ethambutol, 48 hours
  greater monatin excreted per dry cell weight: 12 fold
[2]; [11]
  Monatin/dry cell weight, 24 hours: 6.94 mg/g
  Monatin/dry cell weight, 30 hours: 8.80 mg/g
  Monatin/dry cell weight, 48 hours: 9.14 mg/g
[2]; [12]
  Monatin/dry cell weight, 24 hours: 1.04 mg/g
  Monatin/dry cell weight, 31 hours: 1.53 mg/g
  Monatin/dry cell weight, 48 hours: 2.19 mg/g
[2]; ethambutol 10 mg/L, n = 2
  Monatin/dry cell weight, 24 hours: 1.16 mg/g
  Monatin/dry cell weight, 31 hours: 1.15 mg/g
  Monatin/dry cell weight, 48 hours: 1.06 mg/g

## O=C(O)CC(O)C(=O)O (stereo not drawn) [malate]
[3]; carbon source 4 g/L initially, 24 hours post induction
  Monatin/dcw, 24 hour average: 7.72 mg/g
[3]; carbon source 4 g/L initially, 24 hours post induction, single flasks
  Monatin/dcw, 24 hours: 7.19 mg/g and 8.25 mg/g
[3]; malate as primary carbon source vs glucose
  higher monatin transported per unit biomass: 23%

## CO[C@@H]1[C@@H](OC(N)=O)[C@@H](O)[C@H](Oc2ccc3c(O)c(NC(=O)c4ccc(O)c(CC=C(C)C)c4)c(=O)oc3c2C)OC1(C)C [novobiocin]
[4]; 0, 40 or 80 ppm novobiocin, in the presence of sodium decanoate
  growth: grew to similar optical densities
[4]; [13]
  growth: only slight inhibition of growth
[4]; [14]
  OD 600 nm at 19 hours: 1.407
[4]; [15]
  OD 600 nm at 19 hours: 1.395
[4]; [16]
  OD 600 nm at 19 hours: 0.793
[4]; [17]
  OD 600 nm at 19 hours: 1.374
[5]; [13]
  growth: growth is completely inhibited
[5]; [14]
  OD 600 nm at 19 hours: 0.007
[5]; [15]
  OD 600 nm at 19 hours: 0.008
[5]; [16]
  OD 600 nm at 19 hours: 0.006
[5]; [17]
  OD 600 nm at 19 hours: 0.008

## CC(=O)C(=O)[O-].[Na+] [pyruvate, sodium pyruvate]
[6]; 30° C., 20 g/L pyruvate
  Monatin/dry cell weight, 24 hours: 0.2 mg/g
  Monatin/dry cell weight, 31 hours: 2.1 mg/g
  Monatin/dry cell weight, 48 hours: 2.7 mg/g
  Monatin/dry cell weight, 54 hours: 2.7 mg/g
[6]; 30° C., 30 g/L pyruvate
  Monatin/dry cell weight, 24 hours: 0.3 mg/g
  Monatin/dry cell weight, 31 hours: 1.8 mg/g
  Monatin/dry cell weight, 48 hours: 4.3 mg/g
  Monatin/dry cell weight, 54 hours: 4.7 mg/g
[6]; 35° C., 20 g/L pyruvate
  Monatin/dry cell weight, 24 hours: 5.4 mg/g
  Monatin/dry cell weight, 31 hours: 14.7 mg/g
  Monatin/dry cell weight, 48 hours: 23.5 mg/g
  Monatin/dry cell weight, 54 hours: 23.8 mg/g
[6]; 35° C., 30 g/L pyruvate
  Monatin/dry cell weight, 24 hours: 5.8 mg/g
  Monatin/dry cell weight, 31 hours: 18.1 mg/g
  Monatin/dry cell weight, 48 hours: 29.4 mg/g
  Monatin/dry cell weight, 54 hours: 35.2 mg/g

## O=C([O-])c1ccccc1O.[Na+] [sodium salicylate, Sodium salicylate]
[7]; 1 mM or 2 mM sodium salicylate, 23.5 hours
  increase in monatin transported: seventy percent increase
[7]; 1 mM or 2 mM sodium salicylate, 48 hours
  increase in monatin efflux: seven percent increase
[7]; 1 mM sodium salicylate
  Monatin/dcw, 23.5 hours: 7.41 mg/g
  Monatin/dcw, 48 hours: 9.94 mg/g
[7]; 2 mM sodium salicylate
  Monatin/dcw, 23.5 hours: 7.54 mg/g
  Monatin/dcw, 48 hours: 9.82 mg/g

## polyoxyethylene 20-sorbitan monolaurate [Tween ® 20]
E. coli BL21DE3 AP pET32; Arabidopsis auxin transporter gene on pProNde del, n = 2
  Monatin/dry cell wt., 30 hours: 26.7* mg/g
E. coli BL21DE3 AP pET32; [18]
  Monatin/dry cell wt., 24 hours: 29.4 mg/g
  Monatin/dry cell wt., 48 hours: 19.7 mg/g
E. coli BL21DE3 AP pET32; [19]
  Monatin/dry cell wt., 24 hours: 2.2 mg/g
  Monatin/dry cell wt., 30 hours: 2.5 mg/g
  Monatin/dry cell wt., 48 hours: 2.2 mg/g
